Assays:
LNCaP cells [1] = assay: PSA assay on tissue culture supernatants of LNCaP cells cultured with iron chelator; assay type: cell-based; conditions: for Molecules PSA Per Viable Cell / Total PSA / Molecules PSA Per Cell: 72 Hrs; for Total PSA: from 3.0 ml supernatant per well; for Molecules PSA Per Cell: total cells recovered
Experimental: (§1) Comment: Table 2 is data from one of three similar experiments in which cells were cultured for 72 hours following the methods described in the proposal (i.e., cells in 6-well plates for PSA studies and cells in 96-well plates for thymidine incorporation, both at the same cell concentration). […] For viable cells, the per cell production of PSA rose 33.6% (column 8: PSA value of 1.5×10E7 molecules per cell divided by control value of 1.13×10E7). […]

LNCaP cells [2] = assay: Thymidine (3H) incorporation, LNCaP cells in 96-well plates; assay type: cell-based; conditions: Homo sapiens, read-out: % Inhibition 3H
Experimental: Comment: Table 2 is data from one of three similar experiments in which cells were cultured for 72 hours following the methods described in the proposal (i.e., cells in 6-well plates for PSA studies and cells in 96-well plates for thymidine incorporation, both at the same cell concentration). […] For viable cells, the per cell production of PSA rose 33.6% (column 8: PSA value of 1.5×10E7 molecules per cell divided by control value of 1.13×10E7).

[3] = Cell counts and viability of LNCaP cells after culture with iron chelator; assay type: cell-based; conditions: human, LNCaP cells
Experimental: as §1

LNCaP cells [4] = assay: as above; assay type: cell-based; conditions: 72 Hrs
Experimental: as §1

transferrin receptor = transferrin receptor (Homo sapiens, UniProt P02786); conditions: Forsbeck et al.; cited from earlier work
Sequence of transferrin receptor (P02786 whole entry): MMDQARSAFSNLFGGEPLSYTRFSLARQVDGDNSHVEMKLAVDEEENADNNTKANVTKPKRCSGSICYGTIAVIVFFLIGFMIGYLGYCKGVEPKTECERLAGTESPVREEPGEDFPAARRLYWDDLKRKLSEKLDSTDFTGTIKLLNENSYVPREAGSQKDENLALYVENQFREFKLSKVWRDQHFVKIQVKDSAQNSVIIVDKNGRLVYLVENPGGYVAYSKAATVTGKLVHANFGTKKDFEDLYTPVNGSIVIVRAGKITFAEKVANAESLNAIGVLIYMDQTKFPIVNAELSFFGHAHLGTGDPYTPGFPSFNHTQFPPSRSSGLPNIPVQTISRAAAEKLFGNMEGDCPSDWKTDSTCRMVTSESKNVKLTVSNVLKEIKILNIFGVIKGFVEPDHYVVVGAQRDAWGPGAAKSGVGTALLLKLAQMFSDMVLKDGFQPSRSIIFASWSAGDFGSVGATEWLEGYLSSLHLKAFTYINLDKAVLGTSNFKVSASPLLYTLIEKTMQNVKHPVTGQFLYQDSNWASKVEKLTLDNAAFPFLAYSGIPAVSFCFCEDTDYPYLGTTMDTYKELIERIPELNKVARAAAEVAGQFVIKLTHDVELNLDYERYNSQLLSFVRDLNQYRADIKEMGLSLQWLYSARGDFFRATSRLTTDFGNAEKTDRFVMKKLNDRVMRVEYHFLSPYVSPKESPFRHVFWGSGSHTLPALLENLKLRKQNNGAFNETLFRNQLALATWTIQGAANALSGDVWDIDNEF

CC(=O)N(O)CCCCCNC(=O)CCC(=O)N(O)CCCCCNC(=O)CCC(=O)N(O)CCCCCN [Desferal, Deferoxamine]
rise in production of PSA per viable cell versus control (LNCaP cells [1]; DFO 2.5 micrograms/ml, 72 hours): 33.6%
Molecules PSA Per Viable Cell (LNCaP cells [1]; Desferal 0.1 ug/ml): 1.28 × 10^7
Total PSA (LNCaP cells [1]; Desferal 0.1 ug/ml): 710 ng
Molecules PSA Per Cell (LNCaP cells [1]; Desferal 0.1 ug/ml): 1.20 × 10^7
Molecules PSA Per Viable Cell (LNCaP cells [1]; Desferal 0.25 ug/ml): 1.30 × 10^7
Total PSA (LNCaP cells [1]; Desferal 0.25 ug/ml): 710 ng
Molecules PSA Per Cell (LNCaP cells [1]; Desferal 0.25 ug/ml): 1.22 × 10^7
Molecules PSA Per Viable Cell (LNCaP cells [1]; Desferal 0.50 ug/ml): 1.14 × 10^7
Total PSA (LNCaP cells [1]; Desferal 0.50 ug/ml): 650 ng
Molecules PSA Per Cell (LNCaP cells [1]; Desferal 0.50 ug/ml): 1.06 × 10^7
Molecules PSA Per Viable Cell (LNCaP cells [1]; Desferal 1.0 ug/ml): 1.12 × 10^7
Total PSA (LNCaP cells [1]; Desferal 1.0 ug/ml): 644 ng
Molecules PSA Per Cell (LNCaP cells [1]; Desferal 1.0 ug/ml): 1.04 × 10^7
Molecules PSA Per Viable Cell (LNCaP cells [1]; Desferal 2.0 ug/ml): 1.41 × 10^7
Total PSA (LNCaP cells [1]; Desferal 2.0 ug/ml): 642 ng
Molecules PSA Per Cell (LNCaP cells [1]; Desferal 2.0 ug/ml): 1.32 × 10^7
Molecules PSA Per Viable Cell (LNCaP cells [1]; Desferal 2.5 ug/ml): 1.51 × 10^7
Total PSA (LNCaP cells [1]; Desferal 2.5 ug/ml): 627 ng
Molecules PSA Per Cell (LNCaP cells [1]; Desferal 2.5 ug/ml): 1.42 × 10^7
Molecules PSA Per Viable Cell (LNCaP cells [1]; Desferal 3.0 ug/ml): 1.59 × 10^7
Total PSA (LNCaP cells [1]; Desferal 3.0 ug/ml): 587 ng
Molecules PSA Per Cell (LNCaP cells [1]; Desferal 3.0 ug/ml): 1.45 × 10^7
Molecules PSA Per Viable Cell (LNCaP cells [1]; Desferal 4.0 ug/ml): 1.80 × 10^7
Total PSA (LNCaP cells [1]; Desferal 4.0 ug/ml): 611 ng
Molecules PSA Per Cell (LNCaP cells [1]; Desferal 4.0 ug/ml): 1.54 × 10^7
inhibition at 0.1 µg/mL (LNCaP cells [2]): 1.8%
inhibition at 0.25 µg/mL (LNCaP cells [2]): 6.8%
inhibition at 0.5 µg/mL (LNCaP cells [2]): 7.4%
inhibition at 1 µg/mL (LNCaP cells [2]): 10.6%
inhibition at 2 µg/mL (LNCaP cells [2]): 21.1%
inhibition at 2.5 µg/mL (LNCaP cells [2]): 26.8%
inhibition at 3 µg/mL (LNCaP cells [2]): 40.3%
inhibition at 4 µg/mL (LNCaP cells [2]): 52.7%
viability at 72 h, 0.1 ug/ml ([3]; Desferal 0.1 ug/ml): 93%
viability at 72 h, 0.25 ug/ml ([3]; Desferal 0.25 ug/ml): 93.8%
viability at 72 h, 0.5 ug/ml ([3]; Desferal 0.50 ug/ml): 93.4%
viability at 72 h, 1 ug/ml ([3]; Desferal 1.0 ug/ml): 92.2%
viability at 72 h, 2 ug/ml ([3]; Desferal 2.0 ug/ml): 98.3%
viability at 72 h, 2.5 ug/ml ([3]; Desferal 2.5 ug/ml): 94.3%
viability at 72 h, 3 ug/ml ([3]; Desferal 3.0 ug/ml): 90.9%
viability at 72 h, 4 ug/ml ([3]; Desferal 4.0 ug/ml): 85.4%
Total Cells (LNCaP cells [4]; Desferal 0.1 ug/ml): 1.09 × 10^6
Total Viable Cells (LNCaP cells [4]; Desferal 0.1 ug/ml): 1.01 × 10^6
Total Cells (LNCaP cells [4]; Desferal 0.25 ug/ml): 1.07 × 10^6
Total Viable Cells (LNCaP cells [4]; Desferal 0.25 ug/ml): 1.00 × 10^6
Total Cells (LNCaP cells [4]; Desferal 0.50 ug/ml): 1.13 × 10^6
Total Viable Cells (LNCaP cells [4]; Desferal 0.50 ug/ml): 1.06 × 10^6
Total Cells (LNCaP cells [4]; Desferal 1.0 ug/ml): 1.14 × 10^6
Total Viable Cells (LNCaP cells [4]; Desferal 1.0 ug/ml): 1.05 × 10^6
Total Cells (LNCaP cells [4]; Desferal 2.0 ug/ml): .900 × 10^6
Total Viable Cells (LNCaP cells [4]; Desferal 2.0 ug/ml): 840 × 10^6
Total Cells (LNCaP cells [4]; Desferal 2.5 ug/ml): .810 × 10^6
Total Viable Cells (LNCaP cells [4]; Desferal 2.5 ug/ml): .760 × 10^6
Total Cells (LNCaP cells [4]; Desferal 3.0 ug/ml): .744 × 10^6
Total Viable Cells (LNCaP cells [4]; Desferal 3.0 ug/ml): .680 × 10^6
Total Cells (LNCaP cells [4]; Desferal 4.0 ug/ml): .730 × 10^6
Total Viable Cells (LNCaP cells [4]; Desferal 4.0 ug/ml): .620 × 10^6

Cc1ccc(C(=O)Nc2ccc(S(=O)(=O)O)c3cc(S(=O)(=O)O)cc(S(=O)(=O)O)c23)cc1NC(=O)c1cccc(NC(=O)Nc2cccc(C(=O)Nc3cc(C(=O)Nc4ccc(S(=O)(=O)O)c5cc(S(=O)(=O)O)cc(S(=O)(=O)O)c45)ccc3C)c2)c1 [suramin]
binding of transferrin to its receptor (transferrin receptor): partially inhibit

Reference: US6352834B1, “Prostate cancer assays and related methods” (University of Iowa Research Foundation, priority 1998, dated 2002)
